Earlier results as cited in patent US20170095484A1, “METHOD OF TREATING RESISTANT NON-HODGKIN LYMPHOMA, MEDULLOBLASTOMA, AND/OR ALK+NON-SMALL CELL LUNG CANCER USING THIENOTRIAZOLODIAZEPINE COMPOUNDS” (ONCOETHIX GMBH, priority 2014, published 2017).
Values belong to the molecule of their own block, whether it stands above or below them.

Key:
mTOR = mTOR (Homo sapiens, UniProt P42345)
[1] = molecular target: Bruton's tyrosine kinase (BTK) (Homo sapiens, UniProt Q06187); conditions: in intact cells and in cell-free systems
[2] = test system: Lyn, Syk, PKA, casein kinase I, ERK1, ERK2 and p38 kinase
HDAC = conditions: isoform not stated

Chain of Bruton's tyrosine kinase (BTK) (Q06187 whole entry): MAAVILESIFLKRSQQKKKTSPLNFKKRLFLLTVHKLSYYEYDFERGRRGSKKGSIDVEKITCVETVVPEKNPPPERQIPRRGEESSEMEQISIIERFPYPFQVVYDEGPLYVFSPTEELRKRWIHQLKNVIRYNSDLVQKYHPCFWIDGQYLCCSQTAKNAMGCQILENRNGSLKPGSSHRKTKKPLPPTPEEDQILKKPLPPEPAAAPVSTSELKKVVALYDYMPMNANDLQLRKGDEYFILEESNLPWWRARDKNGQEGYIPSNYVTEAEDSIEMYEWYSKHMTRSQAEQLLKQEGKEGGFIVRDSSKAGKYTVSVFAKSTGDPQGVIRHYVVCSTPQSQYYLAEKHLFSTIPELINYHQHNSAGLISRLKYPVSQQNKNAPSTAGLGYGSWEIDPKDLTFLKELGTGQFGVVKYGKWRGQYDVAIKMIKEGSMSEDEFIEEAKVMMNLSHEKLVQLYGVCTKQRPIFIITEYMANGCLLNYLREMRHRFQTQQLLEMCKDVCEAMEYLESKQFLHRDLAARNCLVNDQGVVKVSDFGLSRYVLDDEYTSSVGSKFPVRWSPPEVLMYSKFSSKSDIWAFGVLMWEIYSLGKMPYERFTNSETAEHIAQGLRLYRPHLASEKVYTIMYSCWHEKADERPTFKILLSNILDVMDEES

- IC50 (mTOR): 1.6 to 2.4 nM
Molecule: CO[C@H]1C[C@@H]2CC[C@@H](C)[C@@](O)(O2)C(=O)C(=O)N2CCCC[C@H]2C(=O)O[C@H]([C@H](C)C[C@@H]2CC[C@@H](OCCO)[C@H](OC)C2)CC(=O)[C@H](C)/C=C(\C)[C@@H](O)[C@@H](OC)C(=O)[C@H](C)C[C@H](C)/C=C/C=C/C=C/1C [Everolimus]

Molecule: CC1=C(O)C(=O)[C@@H]2O[C@@H]2C1=O [Terreic acid]
- effect on the catalytic activity of BTK [1]: Inhibits the catalytic activity of BTK
- effect on the activities of Lyn, Syk, PKA, casein kinase I, ERK1, ERK2 and p38 kinase [2]: little or no effect
- effect on the activity of PKC (PKC): without affecting the activity of PKC

- IC50 (HDAC): ~1.8 nM
Molecule: Trichostatin A
